Assay results as given in ChEMBL document CHEMBL1667756, “Design, synthesis and antibacterial activity of 3-methylenepyrrolidine formyl hydroxyamino derivatives as novel peptide deformylase inhibitors” (2011).
Values after ≈ are worked out from the molar mass of the structure shown.

Key:
Type in all cases: functional
[1] = test system: Staphylococcus aureus; assay: Antibacterial activity against methicillin-resistant Staphylococcus aureus ATCC 43300 by broth micro dilution technique
[2] = test system: Staphylococcus aureus; assay: Antibacterial activity against Staphylococcus aureus ATCC 25923 by broth micro dilution technique
[3] = test system: Staphylococcus epidermidis; assay: Antibacterial activity against methicillin-resistant Staphylococcus epidermidis ATCC 12228 by broth micro dilution technique
[4] = test system: Staphylococcus aureus; assay: Antibacterial activity against methicillin-susceptible Staphylococcus aureus ATCC 29213 by broth micro dilution technique
[5] = test system: Streptococcus pneumoniae; assay: Antibacterial activity against Streptococcus pneumoniae N1387 by broth micro dilution technique
[6] = test system: Streptococcus pyogenes; assay: Antibacterial activity against Streptococcus pyogenes 1308007P by broth micro dilution technique
[7] = test system: Enterococcus faecalis; assay: Antibacterial activity against Enterococcus faecalis by broth micro dilution technique
[8] = test system: Staphylococcus aureus; assay: Antibacterial activity against Staphylococcus aureus WCUH29 by broth micro dilution technique
[9] = test system: Haemophilus influenzae; assay: Antibacterial activity against Haemophilus influenzae H128 by broth micro dilution technique
[10] = test system: Staphylococcus aureus; assay: Antibacterial activity against Staphylococcus aureus OXFORD by broth micro dilution technique
[11] = test system: Escherichia coli; assay: Antibacterial activity against Escherichia coli by broth micro dilution technique
[12] = test system: Streptococcus pyogenes; assay: Antibacterial activity against Streptococcus pyogenes 1307006P by broth micro dilution technique
[13] = test system: Enterococcus faecium; assay: Antibacterial activity against Enterococcus faecium X7501 by broth micro dilution technique
[14] = test system: Haemophilus influenzae; assay: Antibacterial activity against AcrA deficient Haemophilus influenzae H128 by broth micro dilution technique
[15] = test system: Streptococcus pneumoniae; assay: Antibacterial activity against Streptococcus pneumoniae 1629 by broth micro dilution technique
[16] = test system: Moraxella catarrhalis; assay: Antibacterial activity against Moraxella catarrhalis 1502 by broth micro dilution technique
[17] = test system: Haemophilus influenzae; assay: Antibacterial activity against Haemophilus influenzae Q1 by broth micro dilution technique
[18] = test system: Streptococcus pneumoniae; assay: Antibacterial activity against Streptococcus pneumoniae ERY2 by broth micro dilution technique
[19] = test system: Staphylococcus epidermidis; assay: Antibacterial activity against methicillin-resistant Staphylococcus epidermidis by agar dilution method
[20] = test system: Staphylococcus epidermidis; assay: Antibacterial activity against methicillin-susceptible Staphylococcus epidermidis by agar dilution method
[21] = test system: Staphylococcus aureus; assay: Antibacterial activity against methicillin-susceptible Staphylococcus aureus by agar dilution method
[22] = test system: Streptococcus pneumoniae; assay: Antibacterial activity against penicillin-susceptible Streptococcus pneumoniae by agar dilution method
[23] = test system: Streptococcus pneumoniae; assay: Antibacterial activity against penicillin-resistant Streptococcus pneumoniae by agar dilution method
[24] = test system: Staphylococcus aureus; assay: Antibacterial activity against methicillin-resistant Staphylococcus aureus by agar dilution method
[25] = test system: Haemophilus influenzae; assay: Antibacterial activity against Haemophilus influenzae by agar dilution method

C=C1C[C@@H](C(=O)N2CCOCC2)N(C(=O)[C@H](CCCC)CN(O)C=O)C1
MIC [1]: 8 mg/L (≈ 21.8 µM)
MIC [2]: 8 mg/L (≈ 21.8 µM)
MIC [3]: 16 mg/L (≈ 43.5 µM)
MIC [4]: > 64 mg/L

C=C1C[C@@H](C(=O)Nc2ccccc2)N(C(=O)[C@H](CCCC)CN(O)C=O)C1
MIC [1]: 1 mg/L (≈ 2.68 µM)
MIC [2]: 2 mg/L (≈ 5.36 µM)
MIC [3]: 2 mg/L (≈ 5.36 µM)
MIC [4]: 8 mg/L (≈ 21.4 µM)

C=C1C[C@@H](C(=O)Nc2ccc(F)cc2)N(C(=O)[C@H](CCCC)CN(O)C=O)C1
MIC [1]: 0.5 mg/L (≈ 1.28 µM)
MIC [2]: 1 mg/L (≈ 2.55 µM)
MIC [3]: 1 mg/L (≈ 2.55 µM)
MIC [4]: 4 mg/L (≈ 10.2 µM)

C=C1C[C@@H](C(=O)Nc2ccc(O)cc2)N(C(=O)[C@H](CCCC)CN(O)C=O)C1
MIC [1]: 4 mg/L (≈ 10.3 µM)
MIC [2]: 8 mg/L (≈ 20.5 µM)
MIC [3]: 8 mg/L (≈ 20.5 µM)
MIC [4]: 32 mg/L (≈ 82.2 µM)

C=C1C[C@@H](C(=O)Nc2ccc(F)cn2)N(C(=O)[C@H](CCCC)CN(O)C=O)C1
MIC [5]: 4 mg/L (≈ 10.2 µM)
MIC [6]: 4 mg/L (≈ 10.2 µM)
MIC [1]: 0.125 mg/L (≈ 0.319 µM)
MIC [2]: 1 mg/L (≈ 2.55 µM)
MIC [7]: 32 mg/L (≈ 81.5 µM)
MIC [8]: 0.5 mg/L (≈ 1.27 µM)
MIC [9]: 16 mg/L (≈ 40.8 µM)
MIC [3]: 0.5 mg/L (≈ 1.27 µM)
MIC [10]: 4 mg/L (≈ 10.2 µM)
MIC [11]: > 64 mg/L
MIC [12]: 4 mg/L (≈ 10.2 µM)
MIC [13]: 4 mg/L (≈ 10.2 µM)
MIC [4]: 2 mg/L (≈ 5.1 µM)
MIC [14]: 0.5 mg/L (≈ 1.27 µM)
MIC [15]: 16 mg/L (≈ 40.8 µM)
MIC [16]: 0.25 mg/L (≈ 0.637 µM)
MIC [17]: 16 mg/L (≈ 40.8 µM)
MIC [18]: 8 mg/L (≈ 20.4 µM)

C=C1C[C@@H](C(=O)Nc2ccc(F)c[n+]2[O-])N(C(=O)[C@H](CCCC)CN(O)C=O)C1
MIC [1]: 1 mg/L (≈ 2.45 µM)
MIC [2]: 2 mg/L (≈ 4.9 µM)
MIC [3]: 2 mg/L (≈ 4.9 µM)
MIC [4]: 4 mg/L (≈ 9.79 µM)

C=C1C[C@@H](C(=O)Nc2ncc(C)s2)N(C(=O)[C@H](CCCC)CN(O)C=O)C1
MIC [5]: 1 mg/L (≈ 2.53 µM)
MIC [19]: 2 mg/L (≈ 5.07 µM)
MIC [6]: 2 mg/L (≈ 5.07 µM)
MIC [20]: 1 mg/L (≈ 2.53 µM)
MIC [1]: 0.125 mg/L (≈ 0.317 µM)
MIC [2]: 0.5 mg/L (≈ 1.27 µM)
MIC [7]: 4 mg/L (≈ 10.1 µM)
MIC [21]: 1 mg/L (≈ 2.53 µM)
MIC [8]: 0.125 mg/L (≈ 0.317 µM)
MIC [9]: 4 mg/L (≈ 10.1 µM)
MIC [22]: 0.25 mg/L (≈ 0.634 µM)
MIC [3]: 0.125 mg/L (≈ 0.317 µM)
MIC [10]: 0.5 mg/L (≈ 1.27 µM)
MIC [11]: 64 mg/L (≈ 162 µM)
MIC [12]: 2 mg/L (≈ 5.07 µM)
MIC [23]: 0.5 mg/L (≈ 1.27 µM)
MIC [13]: 2 mg/L (≈ 5.07 µM)
MIC [4]: 1 mg/L (≈ 2.53 µM)
MIC [14]: ≤ 0.06 mg/L
MIC [15]: 2 mg/L (≈ 5.07 µM)
MIC [24]: 0.5 mg/L (≈ 1.27 µM)
MIC [16]: ≤ 0.06 mg/L
MIC [17]: 4 mg/L (≈ 10.1 µM)
MIC [25]: 4 mg/L (≈ 10.1 µM)
MIC [18]: 2 mg/L (≈ 5.07 µM)

C=C1C[C@@H](C(=O)N2CCOCC2)N(C(=O)[C@H](CC2CCCC2)CN(O)C=O)C1
MIC [1]: 2 mg/L (≈ 5.08 µM)
MIC [2]: 4 mg/L (≈ 10.2 µM)
MIC [3]: 4 mg/L (≈ 10.2 µM)
MIC [4]: 8 mg/L (≈ 20.3 µM)

C=C1C[C@@H](C(=O)NC2CC2)N(C(=O)[C@H](CC2CCCC2)CN(O)C=O)C1
MIC [19]: 4 mg/L (≈ 11 µM)
MIC [20]: 1 mg/L (≈ 2.75 µM)
MIC [1]: 1 mg/L (≈ 2.75 µM)
MIC [2]: 4 mg/L (≈ 11 µM)
MIC [21]: 2 mg/L (≈ 5.5 µM)
MIC [22]: 1 mg/L (≈ 2.75 µM)
MIC [3]: 4 mg/L (≈ 11 µM)
MIC [23]: 1 mg/L (≈ 2.75 µM)
MIC [4]: 8 mg/L (≈ 22 µM)
MIC [24]: 0.5 mg/L (≈ 1.38 µM)
MIC [25]: 4 mg/L (≈ 11 µM)

C=C1C[C@@H](C(=O)Nc2ccccc2)N(C(=O)[C@H](CC2CCCC2)CN(O)C=O)C1
MIC [1]: 0.25 mg/L (≈ 0.626 µM)
MIC [2]: 0.5 mg/L (≈ 1.25 µM)
MIC [3]: 0.5 mg/L (≈ 1.25 µM)
MIC [4]: 1 mg/L (≈ 2.5 µM)
